Laboratory results published in ChEMBL document CHEMBL4257514, “Design and synthesis of novel 1,3,5-triphenyl pyrazolines as potential anti-inflammatory agents through allosteric inhibition of protein kinase Czeta (PKCζ)” (Medchemcomm, 2018).
Calls of active or inactive are those of the source. No cut-off for these calls is given here.

How the values were obtained:
RAW264.7 [1] = assay: Inhibition of LPS-induced nitric oxide production in mouse RAW264.7 cells at 7.5 uM measured after 20 hrs by griess assay relative to control; assay type: functional; conditions: RAW264.7, 20 h
RAW264.7 [2] = assay: Inhibition of LPS-induced nitric oxide production in mouse RAW264.7 cells measured after 20 hrs by griess assay; assay type: functional, cell-based; conditions: RAW264.7, 20 h
[3] = molecular target: T1, Protein kinase C zeta type (Homo sapiens, UniProt Q05513); assay: Inhibition of recombinant GST-fused PKCzeta (unknown origin) expressed in HEK293 cells using myelin basic protein as substrate measured after 40 mins in presence of [gamma32P]ATP by phosphorimaging analysis
T1 sequence (Q05513 whole entry): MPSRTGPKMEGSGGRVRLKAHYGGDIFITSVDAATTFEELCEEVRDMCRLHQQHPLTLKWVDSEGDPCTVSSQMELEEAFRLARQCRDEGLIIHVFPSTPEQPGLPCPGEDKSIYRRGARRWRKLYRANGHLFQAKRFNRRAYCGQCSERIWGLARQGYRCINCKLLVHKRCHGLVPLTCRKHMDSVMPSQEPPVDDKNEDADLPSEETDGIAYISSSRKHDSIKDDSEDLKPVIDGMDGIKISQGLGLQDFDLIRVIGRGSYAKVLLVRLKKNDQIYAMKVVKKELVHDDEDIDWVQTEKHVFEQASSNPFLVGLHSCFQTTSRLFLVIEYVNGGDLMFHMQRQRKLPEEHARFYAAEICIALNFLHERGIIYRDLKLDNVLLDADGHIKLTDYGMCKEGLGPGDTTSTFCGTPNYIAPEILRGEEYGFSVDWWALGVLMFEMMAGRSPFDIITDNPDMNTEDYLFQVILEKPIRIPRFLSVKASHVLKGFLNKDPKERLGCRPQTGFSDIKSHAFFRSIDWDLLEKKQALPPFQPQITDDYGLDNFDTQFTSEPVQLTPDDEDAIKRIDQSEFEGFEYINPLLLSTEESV

[4] = Cytotoxicity against mouse RAW264.7 cells assessed as live cells at 7.5 uM after 20 hrs by MTT assay relative to control; assay type: cell-based; conditions: read-out: Activity
[5] = molecular target: T2, Protein kinase C iota type (Homo sapiens) (UniProt P41743); assay: Inhibition of recombinant GST-fused PKCiota (unknown origin) expressed in HEK293 cells at 20 uM using myelin basic protein as substrate measured after 40 mins in presence of [gamma32P]ATP by phosphorimaging analysis relative to control
T2 sequence (whole entry): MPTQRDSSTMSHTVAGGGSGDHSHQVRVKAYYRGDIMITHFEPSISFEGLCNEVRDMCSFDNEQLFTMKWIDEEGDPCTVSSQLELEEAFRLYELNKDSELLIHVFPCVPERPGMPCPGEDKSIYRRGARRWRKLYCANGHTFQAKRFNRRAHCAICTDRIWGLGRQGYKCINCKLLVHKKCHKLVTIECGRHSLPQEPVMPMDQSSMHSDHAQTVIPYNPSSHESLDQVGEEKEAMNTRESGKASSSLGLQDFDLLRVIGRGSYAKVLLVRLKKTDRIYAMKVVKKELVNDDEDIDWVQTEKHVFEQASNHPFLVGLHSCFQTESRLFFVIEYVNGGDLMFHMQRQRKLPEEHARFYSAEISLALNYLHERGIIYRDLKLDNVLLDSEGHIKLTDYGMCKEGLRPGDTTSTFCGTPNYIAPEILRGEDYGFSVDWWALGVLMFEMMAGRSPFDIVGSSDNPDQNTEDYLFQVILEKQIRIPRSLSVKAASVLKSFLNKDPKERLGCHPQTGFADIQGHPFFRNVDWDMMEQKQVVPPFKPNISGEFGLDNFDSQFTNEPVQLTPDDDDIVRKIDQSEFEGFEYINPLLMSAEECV

[6] = molecular target: Protein kinase C beta type (Homo sapiens) (UniProt P05771); assay: Inhibition of PKCbeta1 (unknown origin) at 10 uM
Sequence of Protein kinase C beta type (Homo sapiens) (P05771 2-671 limits assumed): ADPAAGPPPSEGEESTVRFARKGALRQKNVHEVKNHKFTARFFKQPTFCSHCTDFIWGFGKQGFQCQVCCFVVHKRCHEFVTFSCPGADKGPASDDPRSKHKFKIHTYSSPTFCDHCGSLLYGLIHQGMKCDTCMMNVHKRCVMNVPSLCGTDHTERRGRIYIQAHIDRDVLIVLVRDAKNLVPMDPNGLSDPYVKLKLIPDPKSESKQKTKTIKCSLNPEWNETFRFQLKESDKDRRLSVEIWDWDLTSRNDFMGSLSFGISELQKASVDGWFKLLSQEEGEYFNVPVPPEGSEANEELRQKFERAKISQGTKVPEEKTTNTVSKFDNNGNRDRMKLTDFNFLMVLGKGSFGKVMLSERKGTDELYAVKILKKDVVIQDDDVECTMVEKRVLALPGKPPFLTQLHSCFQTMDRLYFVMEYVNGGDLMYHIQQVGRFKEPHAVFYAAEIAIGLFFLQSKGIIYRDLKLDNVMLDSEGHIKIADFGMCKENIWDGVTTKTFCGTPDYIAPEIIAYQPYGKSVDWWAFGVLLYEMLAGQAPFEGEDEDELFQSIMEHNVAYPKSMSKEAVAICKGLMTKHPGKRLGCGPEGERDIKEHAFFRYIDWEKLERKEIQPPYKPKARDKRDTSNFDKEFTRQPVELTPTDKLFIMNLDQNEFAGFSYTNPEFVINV

[7] = molecular target: T3, Protein kinase C epsilon type (Homo sapiens) (UniProt Q02156); assay: Inhibition of PKCepsilon (unknown origin) at 10 uM
T3 sequence (whole entry): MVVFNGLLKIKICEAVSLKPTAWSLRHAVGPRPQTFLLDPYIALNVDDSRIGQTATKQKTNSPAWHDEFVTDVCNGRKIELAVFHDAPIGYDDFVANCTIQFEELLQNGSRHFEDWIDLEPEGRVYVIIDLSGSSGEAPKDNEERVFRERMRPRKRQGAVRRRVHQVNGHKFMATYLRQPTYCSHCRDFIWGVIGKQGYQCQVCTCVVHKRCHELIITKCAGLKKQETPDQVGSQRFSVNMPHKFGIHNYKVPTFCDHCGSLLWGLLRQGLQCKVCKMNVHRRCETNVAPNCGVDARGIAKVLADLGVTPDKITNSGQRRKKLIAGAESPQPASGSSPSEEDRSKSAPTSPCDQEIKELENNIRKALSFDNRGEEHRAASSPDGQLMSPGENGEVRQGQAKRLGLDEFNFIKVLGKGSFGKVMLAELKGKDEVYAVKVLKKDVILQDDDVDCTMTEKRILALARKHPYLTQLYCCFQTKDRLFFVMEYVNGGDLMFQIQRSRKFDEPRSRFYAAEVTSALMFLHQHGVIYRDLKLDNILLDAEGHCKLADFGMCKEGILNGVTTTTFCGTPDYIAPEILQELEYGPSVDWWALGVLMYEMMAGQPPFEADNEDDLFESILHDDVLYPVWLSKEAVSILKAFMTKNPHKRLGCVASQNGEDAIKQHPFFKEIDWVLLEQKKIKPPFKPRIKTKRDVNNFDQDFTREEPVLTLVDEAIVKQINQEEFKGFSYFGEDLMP

[8] = molecular target: Protein kinase C beta type (Homo sapiens) (UniProt P05771); assay: Inhibition of PKCbeta2 (unknown origin) at 10 uM
[9] = molecular target: Serine/threonine-protein kinase N1 (Homo sapiens) (UniProt Q16512); assay: Inhibition of PKN1 (unknown origin) at 10 uM
Sequence of Serine/threonine-protein kinase N1 (Homo sapiens) (Q16512 2-942 limits assumed): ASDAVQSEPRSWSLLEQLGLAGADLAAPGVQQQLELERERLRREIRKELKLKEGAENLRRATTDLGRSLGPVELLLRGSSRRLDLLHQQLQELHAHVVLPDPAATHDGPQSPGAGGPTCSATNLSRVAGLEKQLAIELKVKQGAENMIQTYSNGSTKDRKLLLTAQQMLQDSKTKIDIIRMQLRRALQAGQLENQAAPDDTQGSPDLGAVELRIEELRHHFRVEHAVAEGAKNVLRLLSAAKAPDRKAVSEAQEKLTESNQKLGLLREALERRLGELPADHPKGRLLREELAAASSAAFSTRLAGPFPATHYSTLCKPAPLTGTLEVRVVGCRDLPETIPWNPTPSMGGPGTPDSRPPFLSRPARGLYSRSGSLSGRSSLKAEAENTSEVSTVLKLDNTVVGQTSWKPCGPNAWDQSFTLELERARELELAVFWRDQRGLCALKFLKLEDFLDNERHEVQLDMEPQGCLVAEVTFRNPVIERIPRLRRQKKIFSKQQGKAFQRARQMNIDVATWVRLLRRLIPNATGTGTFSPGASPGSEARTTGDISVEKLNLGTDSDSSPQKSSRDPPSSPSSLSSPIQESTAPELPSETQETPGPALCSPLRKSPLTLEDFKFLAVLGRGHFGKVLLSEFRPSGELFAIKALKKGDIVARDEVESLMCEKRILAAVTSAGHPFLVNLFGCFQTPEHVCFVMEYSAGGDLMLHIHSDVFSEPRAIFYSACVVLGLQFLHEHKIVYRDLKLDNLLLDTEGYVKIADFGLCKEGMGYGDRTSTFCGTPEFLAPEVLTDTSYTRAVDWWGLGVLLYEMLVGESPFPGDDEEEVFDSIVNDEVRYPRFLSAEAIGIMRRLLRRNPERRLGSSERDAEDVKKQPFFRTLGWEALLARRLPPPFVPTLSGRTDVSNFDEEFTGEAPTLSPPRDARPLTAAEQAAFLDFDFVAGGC

[10] = molecular target: Protein kinase C delta type (Homo sapiens) (UniProt Q05655); assay: Inhibition of PKCdelta (unknown origin) at 10 uM
[11] = molecular target: Protein kinase C theta type (Homo sapiens) (UniProt Q04759); assay: Inhibition of PKCtheta (unknown origin) at 10 uM
Sequence of Protein kinase C theta type (Homo sapiens) (Q04759 whole entry, looked up): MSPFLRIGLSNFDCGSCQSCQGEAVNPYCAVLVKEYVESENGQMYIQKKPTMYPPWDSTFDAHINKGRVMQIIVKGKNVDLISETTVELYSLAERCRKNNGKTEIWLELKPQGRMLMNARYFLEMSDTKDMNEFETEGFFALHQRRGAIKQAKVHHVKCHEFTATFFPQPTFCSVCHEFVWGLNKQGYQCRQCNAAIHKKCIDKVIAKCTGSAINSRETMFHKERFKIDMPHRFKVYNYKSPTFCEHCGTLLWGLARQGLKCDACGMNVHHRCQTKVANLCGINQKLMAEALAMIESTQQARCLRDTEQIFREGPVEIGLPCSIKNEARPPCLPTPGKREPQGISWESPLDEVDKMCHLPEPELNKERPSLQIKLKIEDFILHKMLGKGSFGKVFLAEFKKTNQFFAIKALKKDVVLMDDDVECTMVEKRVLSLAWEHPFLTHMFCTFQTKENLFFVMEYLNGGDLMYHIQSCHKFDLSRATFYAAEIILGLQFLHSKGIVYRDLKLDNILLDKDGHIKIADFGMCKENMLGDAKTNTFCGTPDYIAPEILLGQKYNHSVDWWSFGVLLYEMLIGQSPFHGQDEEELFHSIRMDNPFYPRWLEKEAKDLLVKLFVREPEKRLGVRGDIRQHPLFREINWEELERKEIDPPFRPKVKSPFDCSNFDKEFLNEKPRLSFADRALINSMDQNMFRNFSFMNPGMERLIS

[12] = molecular target: T4, 3-phosphoinositide-dependent protein kinase 1 (Homo sapiens) (UniProt O15530); assay: Inhibition of PDK1 (unknown origin) at 10 uM
T4 sequence (whole entry): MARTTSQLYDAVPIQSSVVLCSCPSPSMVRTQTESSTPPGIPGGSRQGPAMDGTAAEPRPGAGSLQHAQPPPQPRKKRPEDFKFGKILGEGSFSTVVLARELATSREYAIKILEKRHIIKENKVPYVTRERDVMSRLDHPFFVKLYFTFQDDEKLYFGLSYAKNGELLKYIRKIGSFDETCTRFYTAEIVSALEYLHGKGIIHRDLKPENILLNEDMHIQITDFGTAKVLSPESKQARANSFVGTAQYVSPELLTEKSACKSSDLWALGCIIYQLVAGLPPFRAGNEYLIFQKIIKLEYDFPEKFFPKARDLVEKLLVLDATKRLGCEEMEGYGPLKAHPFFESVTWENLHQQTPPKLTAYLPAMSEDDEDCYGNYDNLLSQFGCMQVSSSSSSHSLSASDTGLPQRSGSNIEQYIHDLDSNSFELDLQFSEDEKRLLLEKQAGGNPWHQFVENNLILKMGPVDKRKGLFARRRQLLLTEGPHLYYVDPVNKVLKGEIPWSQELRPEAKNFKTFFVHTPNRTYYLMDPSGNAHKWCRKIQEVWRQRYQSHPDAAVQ

[13] = molecular target: Protein kinase C gamma type (Homo sapiens) (UniProt P05129); assay: Inhibition of PKCgamma (unknown origin) at 10 uM
[14] = molecular target: Protein kinase C alpha type (Homo sapiens) (UniProt P17252); assay: Inhibition of PKCalpha (unknown origin) at 10 uM
[15] = molecular target: Protein kinase C eta type (Homo sapiens) (UniProt P24723); assay: Inhibition of PKCeta (unknown origin) at 10 uM
Sequence of Protein kinase C eta type (Homo sapiens) (P24723 whole entry, the tested form may be a part): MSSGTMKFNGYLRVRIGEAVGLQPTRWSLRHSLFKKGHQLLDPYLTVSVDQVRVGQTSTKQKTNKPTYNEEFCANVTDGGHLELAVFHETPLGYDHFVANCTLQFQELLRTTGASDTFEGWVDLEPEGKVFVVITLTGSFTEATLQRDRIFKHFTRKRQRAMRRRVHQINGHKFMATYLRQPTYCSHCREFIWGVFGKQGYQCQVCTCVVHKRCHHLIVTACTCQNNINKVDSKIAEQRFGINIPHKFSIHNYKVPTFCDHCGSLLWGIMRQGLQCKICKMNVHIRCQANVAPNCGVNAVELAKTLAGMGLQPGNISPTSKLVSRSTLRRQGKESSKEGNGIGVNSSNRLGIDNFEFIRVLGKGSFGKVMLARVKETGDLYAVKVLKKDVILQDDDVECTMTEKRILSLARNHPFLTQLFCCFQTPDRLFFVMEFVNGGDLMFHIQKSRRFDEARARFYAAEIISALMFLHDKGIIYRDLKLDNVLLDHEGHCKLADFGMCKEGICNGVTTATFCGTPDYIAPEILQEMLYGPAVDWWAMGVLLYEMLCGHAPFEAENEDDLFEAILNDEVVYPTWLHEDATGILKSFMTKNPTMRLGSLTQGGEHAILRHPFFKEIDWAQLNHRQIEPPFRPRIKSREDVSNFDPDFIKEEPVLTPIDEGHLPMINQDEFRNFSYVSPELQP

[16] = molecular target: Protein kinase C zeta type (Homo sapiens, UniProt Q05513, V297L); assay: Inhibition of recombinant GST-fused PKCzeta Val297Leu mutant (unknown origin) expressed in HEK293 cells using myelin basic protein as substrate measured after 40 mins in presence of [gamma32P]ATP by phosphorimaging analysis
Sequence of Protein kinase C zeta type (Homo sapiens, UniProt Q05513, V297L) (Q05513 whole entry V297L, the tested form may be a part): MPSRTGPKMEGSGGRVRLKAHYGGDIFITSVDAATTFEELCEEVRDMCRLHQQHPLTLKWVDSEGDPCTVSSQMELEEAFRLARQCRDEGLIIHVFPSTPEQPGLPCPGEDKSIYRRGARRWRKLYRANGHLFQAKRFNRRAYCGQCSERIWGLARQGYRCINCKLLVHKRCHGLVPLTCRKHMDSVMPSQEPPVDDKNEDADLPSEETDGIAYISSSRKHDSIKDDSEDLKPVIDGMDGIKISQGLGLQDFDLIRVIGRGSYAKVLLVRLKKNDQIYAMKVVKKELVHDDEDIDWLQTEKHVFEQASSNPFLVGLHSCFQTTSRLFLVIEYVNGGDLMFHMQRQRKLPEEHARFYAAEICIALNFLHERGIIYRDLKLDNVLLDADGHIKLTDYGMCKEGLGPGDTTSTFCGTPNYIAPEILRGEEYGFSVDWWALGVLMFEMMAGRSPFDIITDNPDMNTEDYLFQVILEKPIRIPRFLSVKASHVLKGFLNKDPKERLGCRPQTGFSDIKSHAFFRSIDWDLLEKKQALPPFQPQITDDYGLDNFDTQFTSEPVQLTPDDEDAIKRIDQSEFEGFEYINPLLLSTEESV

Homo sapiens = species on record: Homo sapiens; assay: Selectivity ratio of IC50 for recombinant GST-fused PKCzeta Val297Leu mutant (unknown origin) expressed in HEK293 cells to IC50 for recombinant GST-fused PKCzeta (unknown origin) expressed in HEK293 cells; assay type: cell-based

SMILES	IC50 (RAW264.7 [2]) [nM]	IC50 [3] [nM]	inhibition [5] [%]	inhibition at 7.5 µM (RAW264.7 [1]) [%]	viability at 20 h, 7.5 µM [4] [%]	also measured
Oc1cccc(C2=NN(c3ccc(Cl)cc3)C(c3ccc(Cl)cc3)C2)c1 (stereo unspecified)	–	6500	9.3	45	91	–
Oc1ccc(C2=NN(c3ccc(Cl)cc3)C(c3cccc(Cl)c3)C2)cc1 (stereo unspecified)	–	< 100	18.6	34	96	–
Oc1ccc(C2=NN(c3ccc(Cl)cc3)C(c3ccc(Cl)cc3)C2)cc1 (stereo unspecified)	–	–	24.9	62.4	99	–
Oc1ccc(C2=NN(c3ccccc3Cl)C(c3ccccc3Cl)C2)cc1 (stereo unspecified)	–	–	30.5	34	92	–
Oc1ccc(C2=NN(c3cccc(Cl)c3)C(c3cccc(Cl)c3)C2)cc1 (stereo unspecified)	–	400	29	31.5	86	IC50 [16]: 4100 nM; Ratio IC50 (Homo sapiens): 10.2
Oc1ccc(C2=NN(c3cccc(Cl)c3)C(c3ccc(Cl)cc3)C2)cc1 (stereo unspecified)	–	< 100	22.8	42.8	91	–
Oc1ccc(C2=NN(c3ccc(Cl)cc3)C(c3ccc(Cl)cc3)C2)c(O)c1 (stereo unspecified)	–	4300	14.8	31.4	88	IC50 [16]: 9700 nM; Ratio IC50 (Homo sapiens): 2.2

Now from value to compound, other results behind:

IC50 (RAW264.7 [2]) [nM]	IC50 [3] [nM]	inhibition [5] [%]	SMILES	inhibition at 7.5 µM (RAW264.7 [1]) [%]	viability at 20 h, 7.5 µM [4] [%]	also measured
800	–	–	COc1cc(/C=C/C(=O)CC(=O)/C=C/c2ccc(O)c(OC)c2)ccc1O [CURCUMIN]	97	–	–
300	–	27.6	Oc1ccc(C2=NN(c3ccc(Cl)cc3)C(c3ccc(Cl)cc3)C2)cc1O (stereo unspecified)	100	94	inhibition [6]: inactive; inhibition [7]: 11%; inhibition [8]: inactive; inhibition [9]: 11%; inhibition [10]: inactive; inhibition [11]: inactive; inhibition [12]: 1%; inhibition [13]: inactive; inhibition [14]: inactive; inhibition [15]: inactive
2900	–	–	Oc1ccc(C2CC(c3ccccc3O)=NN2c2cccc(Cl)c2)cc1F (stereo unspecified)	86	–	–
3100	< 100	–	Oc1ccc(C2=NN(c3cccc(Cl)c3)C(c3ccc(O)c(F)c3)C2)c(O)c1 (stereo unspecified)	87	–	–
